≈ marks a conversion by molar mass, not a printed value.
Columns and labels:
[1] = Assessment of solubility: HT solubility in pION buffer, UV spectrophotometry; conditions: kinetic from dmso stock
[2] = target: T1, human soluble guanylate cyclase alpha 1 and beta 1 subunits (sGC) stably expressed in Chinese hamster ovary cells (Homo sapiens, UniProt Q02108+Q02153); test: sGC cellular activator assay: cGMP in CHO cells expressing human sGC, preincubated with ODQ; assay type: cell-based; conditions: 40 microM ODQ preincubation, 30 min at room temperature, presence or absence of 50% human serum not given, read-out: EC50 nM, Activity of Compounds in Cellular Assay
T1 construct: expressed in transfected cells; host or cells: Chinese hamster ovary cells, stably transfected
T1 sequence (Q02108 1-690 partner): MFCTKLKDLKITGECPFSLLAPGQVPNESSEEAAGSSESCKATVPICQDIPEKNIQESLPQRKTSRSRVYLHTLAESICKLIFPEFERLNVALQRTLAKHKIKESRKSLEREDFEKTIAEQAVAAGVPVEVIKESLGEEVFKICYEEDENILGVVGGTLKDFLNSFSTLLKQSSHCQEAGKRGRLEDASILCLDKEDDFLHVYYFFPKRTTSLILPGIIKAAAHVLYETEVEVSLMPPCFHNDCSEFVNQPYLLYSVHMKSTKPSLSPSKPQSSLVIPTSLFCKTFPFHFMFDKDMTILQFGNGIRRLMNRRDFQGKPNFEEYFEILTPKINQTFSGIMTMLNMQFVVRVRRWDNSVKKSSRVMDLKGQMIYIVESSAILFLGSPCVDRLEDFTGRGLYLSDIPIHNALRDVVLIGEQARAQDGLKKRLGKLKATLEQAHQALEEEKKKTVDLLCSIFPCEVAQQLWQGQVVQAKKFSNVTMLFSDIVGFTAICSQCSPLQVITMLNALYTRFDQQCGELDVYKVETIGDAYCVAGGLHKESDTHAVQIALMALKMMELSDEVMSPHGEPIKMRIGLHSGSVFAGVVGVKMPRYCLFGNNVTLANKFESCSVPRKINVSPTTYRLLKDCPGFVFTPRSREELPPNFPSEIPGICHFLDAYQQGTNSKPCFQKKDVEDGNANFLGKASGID
T1 sequence (Q02153 1-619): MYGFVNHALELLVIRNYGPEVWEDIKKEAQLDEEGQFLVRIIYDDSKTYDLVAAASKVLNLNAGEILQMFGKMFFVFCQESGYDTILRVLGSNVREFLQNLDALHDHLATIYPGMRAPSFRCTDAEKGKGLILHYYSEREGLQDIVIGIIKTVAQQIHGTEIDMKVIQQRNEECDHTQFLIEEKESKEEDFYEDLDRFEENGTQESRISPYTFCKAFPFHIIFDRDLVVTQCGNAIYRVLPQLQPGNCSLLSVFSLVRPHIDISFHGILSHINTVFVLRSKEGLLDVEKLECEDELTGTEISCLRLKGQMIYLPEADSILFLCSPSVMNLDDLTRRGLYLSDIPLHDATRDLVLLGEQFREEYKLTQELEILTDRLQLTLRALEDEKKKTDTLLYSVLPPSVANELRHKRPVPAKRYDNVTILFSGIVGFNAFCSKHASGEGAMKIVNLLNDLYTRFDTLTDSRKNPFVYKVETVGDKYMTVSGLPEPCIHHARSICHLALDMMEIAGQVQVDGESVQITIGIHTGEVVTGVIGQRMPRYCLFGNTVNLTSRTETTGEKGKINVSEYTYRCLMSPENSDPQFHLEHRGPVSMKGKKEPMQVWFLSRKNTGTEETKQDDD
Method: The sGC cellular activator assay is performed in the presence and absence of 50% human serum (HS) using Chinese hamster ovary cells that have been stably transfected to express the human soluble guanylate cyclase alpha 1 and beta 1 subunits (sGC). Cells are preincubated with 40 microM 1H-[1,2,4]oxadiazolo[4,3-a]quinoxalin-1-one (ODQ), an sGC inhibitor, for one hour in buffer containing 0.1% bovine serum albumin and 3-isobutyl-1-methylxanthine (IBMX). Concentration response curves are prepared for test compounds in DMSO. An intermediate dilution of the compounds is performed in either buffer containing IBMX or type AB HS containing IBMX. Diluted compounds are added to cells and they are incubated at room temperature for thirty minutes. cGMP is measured using a CisBio homogeneous time resolved fluorescence kit and the EC50 is calculated for each compound.

[3] = pH 6.8, aqueous buffer, Solubility (pH 6.8), pH 6.8
[4] = pION system solution buffer, pH 4.5, pH 4.5, aqueous buffer, Solubility (pH 4.5), pH 4.5 buffer, 16-19 h incubation, 1.0% DMSO
[5] = pION system solution buffer, pH 7.4, pH 7.4, aqueous buffer, Solubility (pH 7.4), pH 7.4 buffer, 16-19 h incubation, 1.0% DMSO

Compound	solubility [1, 3] [µg/mL]	solubility [1, 4] [µg/mL]	EC50 [2] [nM]	solubility [1, 5] [µg/mL]
COCCCN(C)C(=O)c1ccc(COc2ccc(C)cc2-c2csc(N3C[C@H]4CC[C@@H](C3)[C@H]4C(=O)O)n2)c(C)c1 [Compound 338]	58 (≈ 100 µM)	0.13 (≈ 0.225 µM)	43	
Cc1ccc(OCc2ccc(C(=O)N3CCCCC3)cc2C)c(-c2csc(N3CC(C4(C(=O)O)CC4)C3)n2)c1 [Compound 260]	14 (≈ 25.7 µM)	< 0.1	590	
Cc1ccc(OCc2ccc(C(=O)N(C)CCO)cc2C)c(-c2csc(N3C[C@H]4CC[C@@H](C3)[C@H]4C(=O)O)n2)c1 [Compound 297]	63 (≈ 115 µM)	1.7 (≈ 3.09 µM)	100	
Cc1ccc(OCc2ccc(C(=O)N3CCCC3)cc2C)c(-c2csc(N3C[C@H]4CC[C@@H](C3)[C@H]4C(=O)O)n2)c1 [Compound 299]	36 (≈ 66 µM)	0.17 (≈ 0.312 µM)	8.4	
Cc1ccc(OCc2ccc(CN3C[C@@H]4C[C@H]3CO4)cc2C#N)c(-c2csc(N3C[C@H]4CC[C@@H](C3)[C@H]4C(=O)O)n2)c1 [Compound 232]	26 (≈ 45.6 µM)	46 (≈ 80.6 µM)	44	> 54
Cc1ccc(OCc2ccc(C(=O)N3CCC(CO)CC3)cc2C)c(-c2csc(N3C[C@H]4CC[C@@H](C3)[C@H]4C(=O)O)n2)c1 [Compound 309]	63 (≈ 107 µM)	< 0.1	42	
Cc1ccc(OCc2ccc(C(=O)N3CCC(F)(F)C3)cc2C)c(-c2csc(N3C[C@H]4CC[C@@H](C3)[C@H]4C(=O)O)n2)c1 [Compound 320]	36 (≈ 61.9 µM)	< 0.1	15	
CO[C@@H]1CCN(C(=O)c2ccc(COc3ccc(C)cc3-c3csc(N4C[C@H]5CC[C@@H](C4)[C@H]5C(=O)O)n3)c(C)c2)C1 [Compound 329]	56 (≈ 97.3 µM)	< 0.1	23	
Cc1ccc(OCc2ccc(CN3CCN(C(=O)C4CC4)CC3)cc2C)c(-c2csc(N3CC(CC(=O)O)C3)n2)c1 [Compound 249]	51 (≈ 88.7 µM)	45 (≈ 78.3 µM)	140	
Cc1ccc(OCc2ccc(C(=O)N3CCN(C)C(=O)C3)cc2C)c(-c2csc(N3C[C@H]4CC[C@@H](C3)[C@H]4C(=O)O)n2)c1 [Compound 308]	66 (≈ 112 µM)	0.88 (≈ 1.49 µM)	20	
Cc1ccc(OCc2ccc(CN3CCN(C(=O)C4CC4)CC3)cc2C)c(-c2csc(N3CC(C4(C(=O)O)CC4)C3)n2)c1 [Compound 255]	0.94 (≈ 1.56 µM)	6 (≈ 9.99 µM)	480	
COC[C@]1(C(=O)O)[C@@H]2CC[C@H]1CN(c1nc(-c3cc(C)ccc3OCc3ccc(C(=O)N4CCCCC4)cc3C)cs1)C2 [Compound 258]	8.2 (≈ 13.6 µM)	< 0.1	550	
Cc1ccc(OCc2ccc(C(=O)N(C)Cc3cnn(C)c3)cc2C)c(-c2csc(N3C[C@H]4CC[C@@H](C3)[C@H]4C(=O)O)n2)c1 [Compound 315]	54 (≈ 90 µM)	< 0.1	57	> 60
COC1CCN(C(=O)c2ccc(COc3ccc(C)cc3-c3csc(N4C[C@H]5CC[C@@H](C4)[C@H]5C(=O)O)n3)c(C)c2)CC1 [Compound 321]	41 (≈ 69.5 µM)	0.13 (≈ 0.22 µM)	55	
Cc1ccc(OCc2ccc(C(=O)N3CCCCC3)cc2C)c(-c2csc(N3CC[C@@]4(C(=O)O)C[C@H]4C3)n2)c1 [Compound 226]	15 (≈ 27.5 µM)	< 0.1	13	
Cc1ccc(OCc2ccc(C(=O)N3CCn4ncnc4C3)cc2C)c(-c2csc(N3C[C@H]4CC[C@@H](C3)[C@H]4C(=O)O)n2)c1 [Compound 327]	71 (≈ 119 µM)	< 0.1	14	
Cc1ccc(OCc2ccc(CN3CCS(=O)(=O)CC3)cc2C)c(-c2csc(N3CC(CC(=O)O)C3)n2)c1 [Compound 253]	0.29 (≈ 0.522 µM)	0.5 (≈ 0.9 µM)	380	
Cc1ccc(OCc2ccc(C(=O)N(C)Cc3ccnn3C)cc2C)c(-c2csc(N3C[C@H]4CC[C@@H](C3)[C@H]4C(=O)O)n2)c1 [Compound 318]	34 (≈ 56.7 µM)	< 0.1	66	> 53
Cc1ccc(OCc2ccc(CN3CCS(=O)(=O)CC3)cc2C)c(-c2csc(N3CC[C@@]4(C(=O)O)C[C@H]4C3)n2)c1 [Compound 223]	2.5 (≈ 4.3 µM)	< 0.1	5.2	
Cc1ccc(OCc2ccc(CN3CCOCC3)cc2C)c(-c2csc(N3C[C@@H]4[C@H](C3)[C@@H]4C(=O)O)n2)c1 [Compound 246]	54 (≈ 104 µM)	62 (≈ 119 µM)	340	
Cc1ccc(OCc2ccc(CN3CCOCC3)cc2C)c(-c2csc(N3C[C@H]4CC[C@@H](C3)[C@@]4(C)C(=O)O)n2)c1 [Compound 270, 8-methyl-3-{4-[5-methyl-2-(2-methyl-4-morpholin-4-ylmethyl-benzyloxy)-phenyl]-thiazol-2-yl}-3-aza-bicyclo[3.2.1]octane-8(syn)-carboxylic acid]		17 (≈ 30.3 µM)	96	> 56
Cc1ccc(OCc2ccc(C(=O)N3CC[C@@H](CO)C3)cc2C)c(-c2csc(N3C[C@H]4CC[C@@H](C3)[C@H]4C(=O)O)n2)c1 [Compound 326]	65 (≈ 113 µM)	0.21 (≈ 0.365 µM)	61	
Cc1ccc(OCc2ccc(CN3CCOCC3)cc2C)c(-c2csc(N3CC(C4(C(=O)O)CC4)C3)n2)c1 [Compound 261]	6.4 (≈ 12 µM)	17 (≈ 31.9 µM)	710	
Cc1ccc(OCc2ccc(C(=O)N3CCOCC3)cc2C)c(-c2csc(N3CC[C@@H](C(=O)O)[C@H]3C)n2)c1 [Compound 241]	72 (≈ 134 µM)	9.2 (≈ 17.2 µM)	41	
Cc1ccc(OCc2ccc(CN3CCOCC3)cc2C)c(-c2csc(N3CCCC(C)(C(=O)O)CC3)n2)c1 (stereo not drawn) [Compound 233]	0.6 (≈ 1.09 µM)	47 (≈ 85.5 µM)	310	
CCOCCN(C)C(=O)c1ccc(COc2ccc(C)cc2-c2csc(N3C[C@H]4CC[C@@H](C3)[C@H]4C(=O)O)n2)c(C)c1 [Compound 335]	49 (≈ 84.8 µM)	0.4 (≈ 0.692 µM)	70	
